This note sets out measurements from PubChem BioAssay AID256 (DTP/NCI, 2004).

Molecules are shown by their SMILES. Where “and” joins values, the source holds several entries; their conditions need not be identical. Identical values can stand only once. Inconclusive results and toxic doses are left out.

The subject of this experiment is CD2F1 mice, L1210 leukemia ip, survival T/C. Briefly: NCI In Vivo Anticancer Drug Screen. Data for tumor model L1210 Leukemia (intraperitoneal) in CD2F1 (CDF1) mice. The settings on record: higher = longer survival. In a few lines:
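Vehicle-treated tumor-bearing mice served as controls (C) for compound-treated mice (T). Reported figure is T divided by C.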

The mark [1] stands for this setting: endpoint: mean survival time, dose: 100.0 mg/kg/injection, schedule: Q04DX003 (ip), vehicle: saline.
[2] abbreviates: endpoint: mean survival time, dose: 200.0 mg/kg/injection, schedule: Q04DX003 (ip), vehicle: saline.
The mark [3] stands for this setting: endpoint: mean survival time, dose: 100.0 mg/kg/injection, schedule: Q01DX001 (ip), vehicle: saline with Tween-80.
The mark [4] stands for this setting: endpoint: mean survival time, dose: 200.0 mg/kg/injection, schedule: Q01DX001 (ip), vehicle: saline with Tween-80.
Setting [5] is: endpoint: mean survival time, dose: 400.0 mg/kg/injection, schedule: Q01DX001 (ip), vehicle: saline with Tween-80.
Setting [6] is: endpoint: mean survival time, dose: 100.0 mg/kg/injection, schedule: Q04DX003 (ip), vehicle: saline with Tween-80.
Where [7] appears, read: endpoint: mean survival time, dose: 200.0 mg/kg/injection, schedule: Q04DX003 (ip), vehicle: saline with Tween-80.
The mark [8] stands for this setting: endpoint: mean survival time, dose: 400.0 mg/kg/injection, schedule: Q04DX003 (ip), vehicle: saline with Tween-80.
Where [9] appears, read: endpoint: mean survival time, dose: 25.0 mg/kg/injection, schedule: Q01DX009 (ip), vehicle: saline with Tween-80.
Setting [10] is: endpoint: mean survival time, dose: 50.0 mg/kg/injection, schedule: Q01DX009 (ip), vehicle: saline with Tween-80.
Setting [11] is: endpoint: mean survival time, dose: 100.0 mg/kg/injection, schedule: Q01DX009 (ip), vehicle: saline with Tween-80.
Setting [12] is: endpoint: mean survival time, dose: 400.0 mg/kg/injection, schedule: Q01DX009 (ip), vehicle: saline with Tween-80.
Where [13] appears, read: endpoint: mean survival time, dose: 200.0 mg/kg/injection, schedule: Q01DX009 (ip), vehicle: saline with Tween-80.

For the compound `CN(C)N=Nc1ccc(C(N)=O)cc1`, the T/C by setting is: (endpoint: mean survival time, dose: 18.75 mg/kg/injection, schedule: Q01DX009 (ip), vehicle: Klucel (hydroxypropylcellulose) (HPC)) 112 % of control; (endpoint: mean survival time, dose: 150.0 mg/kg/injection, schedule: Q01DX009 (ip), vehicle: Klucel (hydroxypropylcellulose) (HPC)) 109 % of control; (endpoint: median survival time, dose: 12.5 mg/kg/injection, schedule: Q01DX005 (ip), vehicle: saline with Tween-80) 105 % of control; (endpoint: median survival time, dose: 25.0 mg/kg/injection, schedule: Q01DX005 (ip), vehicle: saline with Tween-80) 113 % of control; (endpoint: median survival time, dose: 36.0 mg/kg/injection, schedule: Q01DX005 (ip), vehicle: saline with Tween-80) 123 % of control and 110 % of control; (endpoint: median survival time, dose: 36.0 mg/kg/injection, schedule: Q01DX009 (ip), vehicle: saline with Tween-80) 116 % of control. The T/C by setting is: (endpoint: median survival time, dose: 60.0 mg/kg/injection, schedule: Q01DX005 (ip), vehicle: saline with Tween-80) 113 % of control; (endpoint: median survival time, dose: 100.0 mg/kg/injection, schedule: Q01DX009 (ip), vehicle: saline with Tween-80) 166 % of control; (endpoint: median survival time, dose: 167.0 mg/kg/injection, schedule: Q01DX005 (ip), vehicle: saline with Tween-80) 157 % of control; (endpoint: median survival time, dose: 167.0 mg/kg/injection, schedule: Q01DX009 (ip), vehicle: saline with Tween-80) 176 % of control; (endpoint: median survival time, dose: 278.0 mg/kg/injection, schedule: Q01DX005 (ip), vehicle: saline with Tween-80) 96 % of control; (endpoint: median survival time, dose: 278.0 mg/kg/injection, schedule: Q01DX009 (ip), vehicle: saline with Tween-80) 98 % of control.

As to `Cc1cc2c(cc1C)C(=O)c1ccccc1C2=O`, the T/C was 102 % of control (endpoint: mean survival time, dose: 50.0 mg/kg/injection, schedule: Q01DX009 (ip), vehicle: saline); 93 % of control (endpoint: mean survival time, dose: 100.0 mg/kg/injection, schedule: Q01DX009 (ip), vehicle: saline); 97 % of control under setting [1]; 89 % of control under setting [2].

On to `O=P1(N2CC2)OCCCN1CCCl` (stereo unspecified), for which the T/C is 102 % of control (endpoint: mean survival time, dose: 3.8 mg/kg/injection, schedule: Q01DX001 (ip), vehicle: distilled water + Tween-80); 106 % of control (endpoint: mean survival time, dose: 7.5 mg/kg/injection, schedule: Q01DX001 (ip), vehicle: distilled water + Tween-80); 107 % of control (endpoint: mean survival time, dose: 15.0 mg/kg/injection, schedule: Q01DX001 (ip), vehicle: distilled water + Tween-80); 98 % of control (endpoint: mean survival time, dose: 30.0 mg/kg/injection, schedule: Q01DX001 (ip), vehicle: distilled water + Tween-80); 110 % of control (endpoint: mean survival time, dose: 62.5 mg/kg/injection, schedule: Q01DX001 (ip), vehicle: saline with Tween-80).

Regarding `Cc1ccccc1N=Nc1ccccc1`, the T/C is 104 % of control under setting [3], 96 % of control under setting [4] and 101 % of control under setting [5].

For the compound `CN(Cc1cnc2nc(N[Si](C)(C)C)nc(N[Si](C)(C)C)c2n1)c1ccc(C(=O)NC(CCC(=O)O[Si](C)(C)C)C(=O)O[Si](C)(C)C)cc1` (stereo unspecified), the T/C is 159 % of control (endpoint: mean survival time, dose: 1.25 mg/kg/injection, schedule: Q01DX009 (ip), vehicle: saline); 117 % of control (endpoint: mean survival time, dose: 1.9 mg/kg/injection, schedule: Q04DX003 (ip), vehicle: saline); 172 % of control (endpoint: mean survival time, dose: 2.5 mg/kg/injection, schedule: Q01DX009 (ip), vehicle: saline); 159 % of control (endpoint: mean survival time, dose: 7.5 mg/kg/injection, schedule: Q04DX003 (ip), vehicle: saline); 178 % of control (endpoint: mean survival time, dose: 15.0 mg/kg/injection, schedule: Q04DX003 (ip), vehicle: saline); 103 % of control (endpoint: mean survival time, dose: 20.0 mg/kg/injection, schedule: Q01DX009 (ip), vehicle: saline). Moreover, the T/C reads like this: (endpoint: mean survival time, dose: 30.0 mg/kg/injection, schedule: Q04DX003 (ip), vehicle: saline) 193 % of control; (endpoint: mean survival time, dose: 60.0 mg/kg/injection, schedule: Q04DX003 (ip), vehicle: saline) 155 % of control; (endpoint: mean survival time, dose: 120.0 mg/kg/injection, schedule: Q04DX003 (ip), vehicle: saline) 117 % of control.

`CCOC(=O)Nc1cc(=O)cc(NC(=O)OCC)[nH]1`: the T/C (endpoint: mean survival time, dose: 75.0 mg/kg/injection, schedule: Q04DX003 (ip), vehicle: saline) was 98 % of control; the T/C (endpoint: mean survival time, dose: 150.0 mg/kg/injection, schedule: Q04DX003 (ip), vehicle: saline) was 97 % of control; the T/C (endpoint: mean survival time, dose: 300.0 mg/kg/injection, schedule: Q04DX003 (ip), vehicle: saline) was 97 % of control.

Turning to `CCOC(=O)c1cnc[nH]c1=O`, the T/C by setting is: under setting [6], 104 % of control; under setting [7], 104 % of control; under setting [8], 96 % of control.

Turning to `CCC1Cc2c([nH]c(=O)n(C)c2=O)O1` (stereo unspecified), the T/C (endpoint: mean survival time, dose: 100.0 mg/kg/injection, schedule: Q01DX001 (ip), vehicle: saline) is 97 % of control; the T/C (endpoint: mean survival time, dose: 200.0 mg/kg/injection, schedule: Q01DX001 (ip), vehicle: saline) was 97 % of control; the T/C (endpoint: mean survival time, dose: 400.0 mg/kg/injection, schedule: Q01DX001 (ip), vehicle: saline) is 97 % of control.

`Cn1ccc(=Nc2ccc(NC(=O)c3ccc(N=c4ccn(C)c5ccc([N+](=O)[O-])cc45)cc3[N+](=O)[O-])cc2)cc1`: the T/C (endpoint: mean survival time, dose: 12.5 mg/kg/injection, schedule: Q01DX009 (ip), vehicle: saline with Tween-80) was 101 % of control; the T/C under setting [9] is 113 % of control; the T/C under setting [10] is 119 % of control; the T/C under setting [11] was 119 % of control; the T/C under setting [12] was 95 % of control.

Turning to `CC(C)n1cnc2c(=S)nc[nH]c21`, the T/C reads like this: (endpoint: mean survival time, dose: 41.0 mg/kg/injection, schedule: Q01DX Z (ip), vehicle: saline) 121 % of control; (endpoint: mean survival time, dose: 94.0 mg/kg/injection, schedule: Q01DX Z (ip), vehicle: saline) 171 % of control.

Turning to `O=[N+]([O-])O.[NH-]C1CCCCC1[NH-].[NH-]C1CCCCC1[NH-].[Ni+2]` (stereo unspecified), the T/C is 110 % of control (endpoint: mean survival time, dose: 50.0 mg/kg/injection, schedule: Q04DX002 (ip), vehicle: saline with Tween-80) and 113 % of control (endpoint: mean survival time, dose: 100.0 mg/kg/injection, schedule: Q04DX002 (ip), vehicle: saline with Tween-80).

Consider `COC(=O)c1cn(C2OC(CO)C(O)C2O)c2ncnc(N)c12` (stereo unspecified), for which the T/C is 104 % of control (endpoint: mean survival time, dose: 3.12 mg/kg/injection, schedule: Q01DX009 (ip), vehicle: water); 112 % of control (endpoint: mean survival time, dose: 6.25 mg/kg/injection, schedule: Q01DX009 (ip), vehicle: water); 122 % of control (endpoint: mean survival time, dose: 12.5 mg/kg/injection, schedule: Q01DX009 (ip), vehicle: water).

Consider `CC(C)C(=O)Nc1cccc(Cl)c1`, for which the T/C under setting [6] is 97 % of control, the T/C under setting [7] is 97 % of control and the T/C under setting [8] is 94 % of control.

On to `CC(=O)C(C)(C)N(C)c1ccccc1`, for which the T/C was 97 % of control under setting [1]; 93 % of control under setting [2]; 93 % of control (endpoint: mean survival time, dose: 400.0 mg/kg/injection, schedule: Q04DX003 (ip), vehicle: saline).

On to `N#[N+]c1cn(C2CC(O)C(CO)O2)c(=O)[nH]c1=O` (stereo unspecified), for which the T/C runs as follows: under setting [6], 101 % of control; under setting [7], 98 % of control; under setting [8], 118 % of control.

Turning to `CCCCNC(=O)Oc1ccc(OCc2ccccc2)cc1`, the T/C was 96 % of control under setting [11]; 94 % of control under setting [6]; 89 % of control under setting [13]; 91 % of control under setting [7]; 92 % of control under setting [12].

As for `CN(C)c1ccc(/C=N/NC(=O)c2ccccc2N)c(Cl)c1`, the T/C under setting [11] was 87 % of control and the T/C under setting [13] is 87 % of control.

`O=C(Oc1ccccc1)c1ccccc1O`: the T/C runs as follows: under setting [9], 105 % of control; under setting [10], 109 % of control; under setting [3], 101 % of control; under setting [11], 105 % of control; under setting [4], 89 % of control; under setting [5], 95 % of control.

With `C[CH2][Sn]1([CH2]C)[O]C2C(CO)OC(n3cnc4c(=O)[nH]c(N)nc43)C2[O]1` (stereo unspecified), the T/C reads like this: (endpoint: mean survival time, dose: 0.78 mg/kg/injection, schedule: Q01DX005 (ip), vehicle: other) 100 % of control; (endpoint: mean survival time, dose: 1.56 mg/kg/injection, schedule: Q01DX005 (ip), vehicle: other) 100 % of control; (endpoint: mean survival time, dose: 3.13 mg/kg/injection, schedule: Q01DX005 (ip), vehicle: other) 104 % of control; (endpoint: mean survival time, dose: 6.25 mg/kg/injection, schedule: Q01DX005 (ip), vehicle: other) 102 % of control; (endpoint: mean survival time, dose: 12.5 mg/kg/injection, schedule: Q01DX005 (ip), vehicle: other) 96 % of control and 110 % of control.
